Reference: ChEMBL document CHEMBL3585264 (J Med Chem, 2015)

Experiments:
Rattus norvegicus = assay: (§1) Tmax in rat at 5 mg/kg, po; assay type: ADME, organism-based; details: in vivo, BLD = below limit of detection
[1] = Cmax in rat at 5 mg/kg, po; assay type: ADME, organism-based; parameters: dose 5 mg/kg, route oral; details: in vivo
[2] = as §1; assay type: ADME, organism-based; details: in vivo
[3] = AUC (0 to infinity) in rat at 5 mg/kg, po; assay type: ADME, organism-based; parameters: dose 5 mg/kg, time infinity, route oral; details: in vivo
[4] = Mean residence time in rat at 2 mg/kg, iv; assay type: ADME, organism-based; details: in vivo
[5] = Oral bioavailability in rat at 5 mg/kg; assay type: ADME, organism-based; details: in vivo
[6] = Plasma concentration in CB17 SCID mouse xenografted with human PC3 cells at 10 mg/kg, po measured at 1 hr by LC/MS-MS analysis; assay type: ADME, organism-based, PC-3
[7] = Plasma concentration in CB17 SCID mouse xenografted with human PC3 cells at 10 mg/kg, po measured at 3 hrs by LC/MS-MS analysis; assay type: ADME, organism-based, PC-3
[8] = Plasma concentration in CB17 SCID mouse xenografted with human PC3 cells at 10 mg/kg, po measured at 6 hrs by LC/MS-MS analysis; assay type: ADME, organism-based, PC-3
[9] = Plasma concentration in CB17 SCID mouse xenografted with human PC3 cells at 10 mg/kg, po measured at 10 hrs by LC/MS-MS analysis; assay type: ADME, organism-based, PC-3
[10] = Plasma concentration in CB17 SCID mouse xenografted with human PC3 cells at 10 mg/kg, po measured at 24 hrs by LC/MS-MS analysis; assay type: ADME, organism-based, PC-3
[11] = Plasma concentration in CB17 SCID mouse xenografted with human PC3 cells at 1 mg/kg, po measured at 1 hr by LC/MS-MS analysis; assay type: ADME, organism-based, PC-3
[12] = Plasma concentration in CB17 SCID mouse xenografted with human PC3 cells at 1 mg/kg, po measured at 3 hrs by LC/MS-MS analysis; assay type: ADME, organism-based, PC-3
[13] = Plasma concentration in CB17 SCID mouse xenografted with human PC3 cells at 1 mg/kg, po measured at 6 hrs by LC/MS-MS analysis; assay type: ADME, organism-based, PC-3
[14] = Plasma concentration in CB17 SCID mouse xenografted with human PC3 cells at 1 mg/kg, po measured at 10 hrs by LC/MS-MS analysis; assay type: ADME, organism-based, PC-3
[15] = Plasma concentration in CB17 SCID mouse xenografted with human PC3 cells at 1 mg/kg, po measured at 24 hrs by LC/MS-MS analysis; assay type: ADME, organism-based, PC-3
[16] = Oral bioavailability in mouse at 5 mg/kg; assay type: ADME, organism-based; details: in vivo
[17] = Oral bioavailability in dog at 0.3 mg/kg; assay type: ADME, organism-based, Canis lupus familiaris; details: in vivo

O=C1CN(CCC2CCOCC2)c2nc(-c3ccc(-c4nc[nH]n4)cc3)cnc2N1
Tmax (Rattus norvegicus): BLD

O=C1CN(CCC2CCOCC2)c2nc(-c3ccc(-c4nc[nH]n4)nc3)cnc2N1
Cmax [1]: 20 nM | Tmax [2]: 0.9 h | AUC(0-inf) [3]: 0.18 µM·h

CCN1CC(=O)Nc2ncc(-c3ccc(-c4nc[nH]n4)nc3C)nc21
Cmax [1]: 550 nM | AUC(0-inf) [3]: 5.27 µM·h | MRT [4]: 1.2 h | bioavailability [5]: 50%

CCN1C(=O)CNc2ncc(-c3ccc(-c4nc[nH]n4)nc3C)nc21 [CC-115]
Cmax [1]: 1670 nM | AUC(0-inf) [3]: 27.5 µM·h | MRT [4]: 4.3 h | bioavailability [5]: 78% | concentration at 1 h [6]: 6780 nM | concentration at 3 h [7]: 5690 nM | concentration at 6 h [8]: 2100 nM | concentration at 10 h [9]: 1180 nM | concentration at 24 h [10]: 800 nM | concentration at 1 h [11]: 530 nM | concentration at 3 h [12]: 340 nM | concentration at 6 h [13]: 130 nM | concentration at 10 h [14]: 120 nM | concentration at 24 h [15]: 5 nM | bioavailability [16]: 53% | bioavailability [17]: 100%
